The results in this text go back to patent US10759803B2, “Asparagine endopeptidase (AEP) inhibitors for managing cancer and compositions related thereto” (priority 2014, dated 2020).

One series addresses Cathepsin-L (Homo sapiens, UniProt P07711). Briefly: Specificity assay against Cathepsin-L. The class given is biochemical.
In another series the target is T1, CYP1A2 (Homo sapiens, UniProt P05177).
T1 sequence (P05177 1-516): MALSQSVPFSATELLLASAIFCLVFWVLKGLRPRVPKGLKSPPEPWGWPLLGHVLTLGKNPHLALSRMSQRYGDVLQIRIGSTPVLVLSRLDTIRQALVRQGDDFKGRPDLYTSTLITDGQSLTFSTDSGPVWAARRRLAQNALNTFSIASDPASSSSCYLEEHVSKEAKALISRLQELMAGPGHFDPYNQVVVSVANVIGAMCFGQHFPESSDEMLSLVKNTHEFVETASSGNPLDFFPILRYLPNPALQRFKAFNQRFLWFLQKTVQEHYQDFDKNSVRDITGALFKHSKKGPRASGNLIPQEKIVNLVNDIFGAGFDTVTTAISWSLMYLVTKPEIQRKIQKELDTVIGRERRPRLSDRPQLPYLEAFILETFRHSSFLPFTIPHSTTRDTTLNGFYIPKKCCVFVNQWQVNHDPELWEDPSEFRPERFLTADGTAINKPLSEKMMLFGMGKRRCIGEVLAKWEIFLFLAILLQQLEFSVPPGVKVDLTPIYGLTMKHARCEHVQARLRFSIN
Briefly: CYP inhibition screening, CYP1A2. The series is classed as in vitro ADME.

Another series has as its target CYP2C19 (Homo sapiens, UniProt P33261). Briefly: CYP inhibition screening, CYP2C19. The class given is in vitro ADME.
In series [1] the test system is amyloid precursor protein (APP) cleavage. The series can be described thus: APP cleavage in OGD-treated primary cortical neurons. The class given is cell-based. Conditions: 0.1 μM compound. The protocol: A. AEP activity, measured in primary neuronal cultures with 5 μM Cbz-Ala-Ala-Asn-AMC (x-axis denotes neurons were treated with 0.1 μM or 1.0 μM specified compound). B. Caspase activity, measured in primary neuronal cultures with 5 μM Ac-Asp-Glu-Val-Asp-AMC. C. Cathepsin activity, measured in primary neuronal cultures with 5 μM D-Val-Leu-Lys-AMC. D. Inhibition of APP cleavage. Lysates of primary cortical neurons pre-incubated with compounds for 30 min, underwent OGD for 4 hrs, were reperfused for 18 hrs (normoxia neurons remained at normoxic conditions). E. APP can be cleaved in a dose-dependent manner. Lysates of primary cortical neurons pre-incubated with compounds for 30 min, underwent OGD for 4 hrs, were reperfused for 18 hrs (normoxia neurons remained at normoxic conditions).
Depriving cells of oxygen and glucose is a cellular model that is employed to trigger acidosis in cultured cells. The efficacy of the compounds in a cellular model of oxygen-glucose deprivation (OGD) was determined in an effort to mimic the effects of stroke in primary cultured neurons. As a result of depriving neurons of oxygen and glucose-containing medium, AEP activity was doubled (FIG. 7A, ‘DMSO-Norm’ compared to ‘DMSO-OGD’), while Caspase-3 and Cathepsin activities remained relatively unchanged. […] Cleavage of APP is observed in response to only DMSO treatment (FIG. 7D, lane 2), and it appears that upon the treatment of 1 μM of compounds 10, 11, and 12, and just 0.1 μM of compound s31, 38 and 64, the cleavage was blocked, presumably due to AEP inhibition.

The next series has as its system CYP3A. The series can be described thus: CYP inhibition screening, CYP3A-Testosterone. The series is classed as in vitro ADME.
Another series has as its system Caco-2 monolayer. The series can be described thus: Caco-2 monolayer permeability screen. As to conditions: Table 1. (Passage across Caco-2 layers is used to estimate intestinal permeability.)
The next series concerns the target CYP2D6 (Homo sapiens, UniProt P10635). The series can be described thus: CYP inhibition screening, CYP2D6. The class given is in vitro ADME.
The next series addresses CYP2C9 (Homo sapiens, UniProt P11712). Briefly: CYP inhibition screening, CYP2C9. The series is classed as in vitro ADME.
The target of another series is Cathepsin-S (Homo sapiens, UniProt P25774). Briefly: Specificity assay against Cathepsin-S. The class given is biochemical. As to the method: (§1) Purified recombinant enzyme was incubated with various concentrations of inhibitor in appropriate assay buffers in the presence of increasing concentrations of inhibitor. The formation of fluorescent product was monitored in duplicate reactions and the data was fit to appropriate equations to calculate the IC50 values.
(§2) To identify small-molecule inhibitors of AEP, a high-throughput screen was designed in conjunction with the Emory Chemical Biology Discovery Center. The screen incorporated mouse kidney lysates to assay a 54,384 compound library. […] Additional structural analysis and grouping allowed the compounds to be sorted into 8 distinct backbone families. […] The specificity of the compounds was also determined using four major cysteine proteases (FIG. 2).

The target of a further series is CYP3A4 (Homo sapiens, UniProt P08684). The series can be described thus: CYP inhibition screening, CYP3A4-Midazolam. The class given is in vitro ADME.
The target in another series is T2, Caspase-3 (Homo sapiens, UniProt P42574).
T2 sequence (P42574 29-175 limits assumed): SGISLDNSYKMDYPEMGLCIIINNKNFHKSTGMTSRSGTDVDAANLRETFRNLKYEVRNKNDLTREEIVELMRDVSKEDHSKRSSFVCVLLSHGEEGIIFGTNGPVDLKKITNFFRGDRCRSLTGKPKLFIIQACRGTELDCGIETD
T2 sequence (P42574 176-277 limits assumed): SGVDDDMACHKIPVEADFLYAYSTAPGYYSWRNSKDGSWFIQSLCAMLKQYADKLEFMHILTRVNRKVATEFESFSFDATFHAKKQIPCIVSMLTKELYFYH
Briefly: Specificity assay against Caspase-3. The series is classed as biochemical. As to the method: as §1, §2

Another series addresses Caspase-8 (Homo sapiens, UniProt Q14790). Briefly: Specificity assay against Caspase-8. The series is classed as biochemical. The protocol:
as §1, §2

In a further series the target is T3, AEP (Homo sapiens, UniProt Q99538).
T3 construct: tested with purified active AEP, IC50 values for the top 8 candidates were found
T3 sequence (Q99538 18-323 limits assumed): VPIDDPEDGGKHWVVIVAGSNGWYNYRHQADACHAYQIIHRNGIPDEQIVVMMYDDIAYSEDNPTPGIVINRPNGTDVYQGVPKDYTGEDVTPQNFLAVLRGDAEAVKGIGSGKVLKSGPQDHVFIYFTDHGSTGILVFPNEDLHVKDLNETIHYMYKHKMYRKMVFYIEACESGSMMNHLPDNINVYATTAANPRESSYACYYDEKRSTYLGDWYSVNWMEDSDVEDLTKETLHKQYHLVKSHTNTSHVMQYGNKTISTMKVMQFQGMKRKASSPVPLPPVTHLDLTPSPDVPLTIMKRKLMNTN
The series can be described thus: IC50 assay with purified recombinant AEP. The class given is biochemical. Conditions: purified active AEP; read-out: IC50 toward AEP. As to the method: as §1, §2
Various concentrations of the appropriate compound were incubated with AEP reaction buffer (50 mM Sodium Citrate pH 5.5, 0.1% CHAPS, 60 mM Na2HPO4, 1 mM EDTA, final pH 6.0) and peptide substrate, 10 μM Cbz-Ala-Ala-Asn-AMC (Bachem). The reaction was initiated upon addition of 50 nM AEP and fluorescent product formation was monitored over 15 min. […] Data were analyzed with GraFit version 5.0.11 software package.

Chain of CYP3A4 (P08684 whole entry): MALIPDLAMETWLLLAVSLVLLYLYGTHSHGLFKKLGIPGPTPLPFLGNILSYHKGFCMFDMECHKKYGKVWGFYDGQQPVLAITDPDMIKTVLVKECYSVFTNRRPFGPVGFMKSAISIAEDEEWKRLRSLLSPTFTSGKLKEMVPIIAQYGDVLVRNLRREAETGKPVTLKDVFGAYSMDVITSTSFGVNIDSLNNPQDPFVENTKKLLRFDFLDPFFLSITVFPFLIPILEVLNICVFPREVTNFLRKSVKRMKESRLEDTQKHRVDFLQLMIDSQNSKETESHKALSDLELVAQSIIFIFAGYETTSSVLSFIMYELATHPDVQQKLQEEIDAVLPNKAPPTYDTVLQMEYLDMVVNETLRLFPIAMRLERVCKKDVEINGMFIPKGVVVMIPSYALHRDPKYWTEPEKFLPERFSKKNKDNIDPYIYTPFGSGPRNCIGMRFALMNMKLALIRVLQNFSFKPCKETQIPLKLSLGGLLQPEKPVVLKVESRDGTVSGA
Chain of CYP2D6 (P10635 whole entry): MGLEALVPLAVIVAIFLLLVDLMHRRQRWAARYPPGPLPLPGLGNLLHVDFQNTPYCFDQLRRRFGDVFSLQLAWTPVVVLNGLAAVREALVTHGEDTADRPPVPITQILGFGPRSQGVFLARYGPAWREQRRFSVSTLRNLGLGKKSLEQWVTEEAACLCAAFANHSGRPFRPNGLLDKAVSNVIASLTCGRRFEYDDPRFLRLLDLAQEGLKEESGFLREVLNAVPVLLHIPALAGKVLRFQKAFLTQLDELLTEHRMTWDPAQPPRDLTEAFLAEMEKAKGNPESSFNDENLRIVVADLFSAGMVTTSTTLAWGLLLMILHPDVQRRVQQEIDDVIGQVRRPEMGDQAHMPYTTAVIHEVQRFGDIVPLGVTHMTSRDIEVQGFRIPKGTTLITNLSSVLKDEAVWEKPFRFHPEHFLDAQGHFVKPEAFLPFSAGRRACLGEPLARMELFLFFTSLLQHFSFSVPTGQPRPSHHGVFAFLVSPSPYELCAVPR
Chain of CYP2C19 (P33261 whole entry, the tested form may be a part): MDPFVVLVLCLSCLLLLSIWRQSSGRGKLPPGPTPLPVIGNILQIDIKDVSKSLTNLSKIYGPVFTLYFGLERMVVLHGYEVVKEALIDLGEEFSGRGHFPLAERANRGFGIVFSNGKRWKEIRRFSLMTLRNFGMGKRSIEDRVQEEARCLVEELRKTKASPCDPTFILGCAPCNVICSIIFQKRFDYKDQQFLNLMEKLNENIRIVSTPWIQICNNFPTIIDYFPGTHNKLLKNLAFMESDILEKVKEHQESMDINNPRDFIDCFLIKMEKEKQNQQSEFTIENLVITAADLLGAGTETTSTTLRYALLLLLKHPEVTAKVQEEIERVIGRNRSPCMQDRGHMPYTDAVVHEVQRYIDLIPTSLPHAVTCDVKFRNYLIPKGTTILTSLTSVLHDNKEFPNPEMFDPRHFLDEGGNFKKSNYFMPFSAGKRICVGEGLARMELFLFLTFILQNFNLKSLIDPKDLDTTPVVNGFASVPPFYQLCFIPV
Chain of CYP2C9 (P11712 whole entry): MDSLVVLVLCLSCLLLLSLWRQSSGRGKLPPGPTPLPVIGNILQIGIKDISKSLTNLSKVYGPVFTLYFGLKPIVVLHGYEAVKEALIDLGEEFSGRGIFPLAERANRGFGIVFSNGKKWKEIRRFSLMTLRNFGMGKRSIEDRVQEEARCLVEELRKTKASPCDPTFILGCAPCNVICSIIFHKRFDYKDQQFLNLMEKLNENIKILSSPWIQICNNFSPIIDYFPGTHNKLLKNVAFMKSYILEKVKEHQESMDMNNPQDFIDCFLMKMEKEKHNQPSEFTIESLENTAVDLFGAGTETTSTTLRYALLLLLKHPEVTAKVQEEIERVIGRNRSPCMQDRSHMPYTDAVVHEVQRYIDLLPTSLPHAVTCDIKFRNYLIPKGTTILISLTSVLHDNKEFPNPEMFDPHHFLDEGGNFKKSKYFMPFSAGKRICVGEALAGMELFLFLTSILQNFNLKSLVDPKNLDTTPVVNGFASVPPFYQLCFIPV
Chain of Caspase-8 (Q14790 217-374 limits assumed, species assumed): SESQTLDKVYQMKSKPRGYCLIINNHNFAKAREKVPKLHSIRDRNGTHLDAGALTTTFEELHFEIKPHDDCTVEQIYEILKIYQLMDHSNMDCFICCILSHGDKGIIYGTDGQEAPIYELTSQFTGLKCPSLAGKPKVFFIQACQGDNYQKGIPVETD
Chain of Caspase-8 (Q14790 385-479 limits assumed, species assumed): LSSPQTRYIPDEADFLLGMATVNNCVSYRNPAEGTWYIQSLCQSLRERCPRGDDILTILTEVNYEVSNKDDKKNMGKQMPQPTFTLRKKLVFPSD
Chain of Cathepsin-L (P07711 114-333, species assumed): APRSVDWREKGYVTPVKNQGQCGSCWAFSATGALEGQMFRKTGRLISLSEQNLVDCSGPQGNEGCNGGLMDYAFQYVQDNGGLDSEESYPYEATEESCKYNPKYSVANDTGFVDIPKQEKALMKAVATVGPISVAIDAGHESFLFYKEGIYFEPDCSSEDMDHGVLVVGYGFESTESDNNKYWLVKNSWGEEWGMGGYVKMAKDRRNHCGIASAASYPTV
Chain of Cathepsin-S (P25774 115-331, species assumed): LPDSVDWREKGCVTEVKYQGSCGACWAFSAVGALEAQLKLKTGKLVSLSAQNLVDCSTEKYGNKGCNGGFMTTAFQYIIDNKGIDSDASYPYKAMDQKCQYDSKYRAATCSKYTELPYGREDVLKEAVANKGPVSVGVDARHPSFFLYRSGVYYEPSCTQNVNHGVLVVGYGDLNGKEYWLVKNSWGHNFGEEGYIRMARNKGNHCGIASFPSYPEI
Procedure for Caco-2 monolayer: To explore the in vitro ADME profiles of the compounds, additional tests were conducted.

What is called IC50 is the concentration needed to halve the response being measured. For `CCN(CC)c1ccc(CN2CCc3nc(C)[nH]c(=O)c3C2)c(OC)c1` [Compound 64], the “selectivity for AEP over Cathepsin-L” value at Cathepsin-L is recorded as “over 40 fold”. For the same compound, the CYP1A2 inhibition was determined as 73.7% on CYP1A2 (3 μM) and 22.2% at CYP1A2 (10 μM). Moreover, the CYP2C19 inhibition is 31.6% at CYP2C19 (3 μM) and 20.4% at CYP2C19 (10 μM). The “APP cleavage after OGD” value in series [1] is “blocked”. The CYP3A-Testosterone inhibition in the series on CYP3A (3 μM) was 1.5%; with CYP3A (10 μM) it was −0.1%. Also, the “A −>B Papp” value in the series on Caco-2 monolayer is “<LLOQ”. Besides, the “B −> A Papp” value with Caco-2 monolayer is “<LLOQ”. The CYP2D6 inhibition at CYP2D6 (3 μM) is on record as 34.6%; at CYP2D6 (10 μM), 58.3%. The CYP2C9 inhibition on CYP2C9 (3 μM) came to 4.6%; on CYP2C9 (10 μM), 7.9%. Also, the “selectivity for AEP over Cathepsin-S” value at Cathepsin-S was “over 40 fold”. Also, the CYP3A4-Midazolam inhibition is listed as 0.6% on CYP3A4 (3 μM) and 10.1% at CYP3A4 (10 μM). In addition, the “selectivity for AEP over Caspase-3” value at Caspase-3 is listed as “about 6 fold”. Further, at Caspase-8, the “selectivity for AEP over Caspase-8” value is reported as “over 40 fold”. The concentration for half-maximal inhibition (IC50) at AEP worked out at 2370 nM.
